Test system: IL6
Experiment: IL6 real-time PCR and ELISA in MDA-MB-468 cells
Format: cell-based, human
Settings: for gene expression of IL6 (real-time PCR): 20 nM, 5 hrs; for IL6 protein in supernatants (ELISA): EGF stimulation, 48 hrs
Protocol: FIG. 10 illustrates an embodiment of the present invention and illustrates SIM-1 and SIM-2 inhibit expressions of IL6, RANTES, and other STAT3-dependent tumor promoting genes and proteins. (A) A gene array of STAT3 dependent 66 genes (listed in Table 1) was performed in mRNA samples of MDA-MB-468 cells. Realtime PCR plate coated with 66 primer sets of STAT3-dependent genes was run for four conditions including control, EGF (25 ng/mL), EGF+SIM-1 (10 nM) and EGF+SIM-2 (10 nM). The resultant Ct value was normalized with four different housekeeping genes, and then summarized with a heatmap analyses drawn in Morpheus server of Broad Institute. […] (C) The cloning of STAT3 response element of IL6 promoter upstream of GFP reporter was performed by GeneCopoea genome editing service (Rockville, MD). The bit score map and sequence of consensus STAT3 response element or SEQ ID NO: 2 was shown below. EGFP reporter assay was performed in EGF-induced (20 ng/mL) MDA-MB-468 after treatments of increasing doses of (D) SIM-1 and (E) SIM-2 for 5 hrs. Briefly, MDA-MB-468 cells were transfected with the plasmid for 24 hrs using Lipofectamine transfection strategy followed by the treatment with EGF (20 ng/mL) alone and together with increasing doses SIM-1 and SIM-2 for additional 5 hrs. After that live cells were recorded at Ex:Em=485/535 nm wavelength for GFP activity. (F) The scrambled STAT3 response element in IL6 promoter or SEQ ID NO: 3 was also synthesized partnering with GeneCopoea. One-way ANOVA (treatment as effector) was adopted to test the significance between groups at **p<0.01, #p<0.005, and *p<0.05. (G) The GFP reporter activity was measured where the scrambled gene was cloned upstream of eGFP reporter. Results are mean±SD of three different experiments Ns=no significance. (H) Realtime PCR analyses of IL6 was performed in MDA-MB-468 cells maintained under control, EGF (25 ng/mL), EGF+SIM-1(20 nM), and EGF+SIM-2 (20 nM) conditions for 5 hrs. (I) ELISA analysis of IL6 was performed after 48 hrs in MDA-MB-468 cells kept under similar treatment conditions. (J) Realtime PCR (5 hrs post-treatment) and (K) ELISA analyses of RANTES (48 hrs post treatment) were performed under similar condition. Results are mean±SD of three different experiments. One-way ANOVA (treatment as effector) was adopted to test the significance between groups at ***p<0.001, **p<0.01, and *p<0.05.
ELISA assay. IL6 (BD OptEIA™; Cat #555220) and RANTES (Thermo; Cat #EHRNTS) ELISA was performed as per manufacturer's protocol. […]
Once the transcriptional regulation of STAT3-dependent genes was confirmed, the quantification of IL6 was performed. […]

Row | Structure (SMILES) | gene expression of IL6 (real-time PCR) | IL6 protein in supernatants (ELISA)
1 | O=C(O)CCC(=O)NCc1csc2ccc(Cl)cc12 [SIM-1, 4-[(5-chloro-1-benzothiophen-3-yl)methylamino]-4-oxobutanoic acid] | strongly inhibited | suppression of IL6
2 | CCOC(=O)c1c(NC(C)=O)sc2c(Cl)c(/C=N/O)ccc12 [SIM-2, ethyl 2-acetamido-7-chloro-6-(hydroxyiminomethyl)-1-benzothiophene-3-carboxylate] | strongly inhibited | suppression of IL6

— patent publication US20250255847A1, “[…]s: Novel Drugs for Triple Negative Breast Cancer” (SIMMARON RSEARCH INC, priority 2024, published 2025)
